Reference: patent EP4035684A1, “AFFINITY ILLUDOFULVENE CONJUGATES” (AF Chemical LLC, priority 2019, dated 2022)
Where a SMILES comes first, the peptide text is derived from it. [ ]: non-standard residue; d: D form. The star is where a group is joined. ξ: configuration not given here. X4 = CC1=C(C*)C2=C(C)C3(CC3)[C@@](C)(O)C(=O)C2=C1; ξC = NC(CS)C(=O)O

Columns and labels:
[1] = system: MV522 cell line; test: cells; assay type: cell-based; details: read-out: Mean IC50 value (nM) ± SD, N=3 unless otherwise indicated, MV522 Target Cell Line, 2 hr exposure
[2] = system: NCI 60 cell line panel; test: NCI DTP 60 cell line screen assay
Description: An ADC is engulfed by a tumor cell, transported to the endosomes (pH < 6.0) and then into the lysozomes (pH < 4). […] 4) Cancer cells can become resistant to various toxins and drugs through the development of what is termed multi-drug resistance. This process is known to occur through several different mechanisms.

[3] = system: MV522 cell line; test: 48 hour exposure, growth or viability by Trypan Blue Exclusion assay, target cell line; assay type: cell-based; details: read-out: Mean IC50 value (nM) ± SD, N=3 unless otherwise indicated
[4] = system: 8392B cell line; test: cells; assay type: cell-based; details: read-out: Mean IC50 value (nM) ± SD, N=3 unless otherwise indicated, 8392B Nontarget Cell Line, 48 hr exposure, 8392B nontarget cell line, mean ± SD, N=3 unless otherwise indicated
[5] = system: 8392B cell line; test: Two hour toxicity: inhibition of DNA synthesis activity, nontarget cell line; assay type: cell-based; details: read-out: Mean IC50 value (nM) ± SD, N=3 unless otherwise indicated; 8392B Nontarget Cell Line; 2 hr exposure; 8392B nontarget cell line, 2 hr exposure; mean ± SD, N=3 unless otherwise indicated
[6] = MV522 target cell line, mean ± SD, N=3 unless otherwise indicated

Structure (SMILES)	IC50 [3]	IC50 [1, 6]	IC50 [4]	IC50 [5]	further results
CC1=C(CO)C2=C(C)C3(CC3)[C@@](C)(O)C(=O)C2=C1 [compound 002]	–	–	–	–	IC50 ([1]; MV522, 2 h): 110 ± 40 nM; MDR Activity [2]: Yes; Activity Value ([2]; negative = lyses tumor cells, zero = no growth, positive = slower growth): -15
CC1=C(CSC[C@H](NC(=O)[C@H](CCCNC(=N)N)NC(=O)CNC(=O)[C@H](CC(N)=O)NC(=O)[C@@H](N)CSCC2=C(C)C=C3C(=O)[C@](C)(O)C4(CC4)C(C)=C32)C(=O)O)C2=C(C)C3(CC3)[C@@](C)(O)C(=O)C2=C1 [compound 100] (H-C(X4)NGRC(X4)-OH)	1700 ± 500 nM	> 10000 nM	–	–	–
CC1=C(CSCC(N)C(=O)N[C@@H](CCCNC(=N)N)C(=O)NCC(=O)N[C@@H](CC(N)=O)C(=O)NC(CSCC2=C(C)C=C3C(=O)[C@](C)(O)C4(CC4)C(C)=C32)C(=O)O)C2=C(C)C3(CC3)[C@@](C)(O)C(=O)C2=C1 (stereo partly drawn) [compound 101] (H-[ξC](X4)RGN[ξC](X4)-OH)	> 7500 nM	> 8000 nM	–	–	–
CC(=O)ON(C(C)=O)c1ccc(C(=O)OC[C@]2(C)C=C3C(=O)[C@](C)(O)C4(CC4)C(C)=C3C2OC(=O)c2ccc(N(OC(C)=O)C(C)=O)cc2)cc1 (stereo partly drawn) [compound 140]	> 14000 nM	–	> 14000 nM	–	–
COC(=O)C1=C(C(=O)OC)C23C=C(C)C1C2=C(C)C1(CC1)[C@@](C)(O)C3O (stereo partly drawn) [compound 141]	3700 ± 800 nM	–	–	13700 ± 1900 nM	–
COC(=O)C1=C(C(=O)OC)C23C=C(C)C1C2=C(C)C1(CC1)[C@@](C)(O)C3=O (stereo partly drawn) [compound 142]	24 ± 7 nM	–	–	–	MDR Activity [2]: Yes; Cytotoxicity ([2]; ability to actually kill tumor cells versus only inhibiting growth): Yes
CC(=O)Oc1ccc(-n2nnnc2SCC2=C(C)C=C3C(=O)[C@](C)(O)C4(CC4)C(C)=C32)cc1 [compound 155]	3600 ± 400 nM	8200 ± 1200 nM	9100 ± 1100 nM	17000 nM	–
CC1=C(CCCOC(=O)[C@@H]2CCCN2C(=O)[C@H](CO)NC(=O)OC(C)(C)C)C2=C(C)C3(CC3)[C@@](C)(O)C(=O)C2=C1 [compound 208]	930 ± 160 nM	–	–	25000 nM	–
CC1=C2C(=CC(C)(CO[Si](C)(C)C(C)(C)C)C2OC(=O)c2ccc(S(=O)(=O)F)cc2)C(=O)C(C)(O)C12CC2 (stereo not drawn) [compound 219]	> 52 nM	> 52000 nM	> 52000 nM	> 52000 nM	–
CC1=CC2=C(C)C3(CC3)C(C)(O)C(=NO)C2=C1 (stereo not drawn) [compound 224]	> 130000 nM	> 200000 nM	> 130000 nM	> 200000 nM	–
CC1=C(CCCOC(=O)NCCCl)C2=C(C)C3(CC3)[C@@](C)(O)C(=O)C2=C1 [compound 238]	57 ± 8 nM	780 ± 190 nM	–	–	–
CC1=C(CCCNS(=O)(=O)c2ccc(C)cc2)C2=C(C)C3(CC3)[C@@](C)(O)C(=O)C2=C1 [compound 242]	580 ± 150 nM	–	–	–	–
CC1=C2C(O)C(C)(C)C3CC23C(=O)C(C)(O)C12CC2 (stereo not drawn) [compound 252]	–	> 380000 nM	> 380000 nM	> 380000 nM	–
CC1=C(CCCOC(=O)c2cn(CC3=C(C)C=C4C(=O)[C@](C)(O)C5(CC5)C(C)=C43)nn2)C2=C(C)C3(CC3)[C@@](C)(O)C(=O)C2=C1 [compound 257]	320 ± 30 nM	–	–	–	–
CC1=C(CCCNS(=O)(=O)NO)C2=CC3(CC3)C(C)(O)C(=O)C2=C1 (stereo not drawn) [compound 265]	8 ± 1 nM	810 ± 20 nM	–	–	–
CC1=C(CNC(=O)NO)C2=C(C)C3(CC3)[C@@](C)(O)C(=O)C2=C1 [compound 277]	190 ± 20 nM	–	9800 nM	31000 nM	–
CC1=C(CNC(=O)NCCO)C2=C(C)C3(CC3)[C@@](C)(O)C(=O)C2=C1 [compound 279]	190 ± 20 nM	–	> 9000 nM	> 90000 nM	–
CC1=C(CCCNC(=O)NCCO)C2=C(C)C3(CC3)[C@@](C)(O)C(=O)C2=C1 [compound 280]	< 80 nM	–	> 2800 nM	> 83000 nM	–
CC1=C(CNC(=O)NCCCl)C2=C(C)C3(CC3)[C@@](C)(O)C(=O)C2=C1 [compound 282]	–	680 ± 60 nM	> 8500 nM	> 85000 nM	–
CC1=C(Cn2c(=O)[nH]cc(F)c2=O)C2=C(C)C3(CC3)[C@@](C)(O)C(=O)C2=C1 [compound 287]	–	455000 ± 22000 nM	–	567000 ± 17000 nM	–
